This passage reports mass density and excess molar enthalpy results from the NIST ThermoML archive (doi:10.1016/j.jct.2006.03.020).

Numbers after ± are expanded uncertainties.

The conditions of data set [1]: 298.15 K; 101.33 kPa; Liquid.
The nature of data set [2]: excess molar enthalpy (molar enthalpy of mixing); xn = mol fraction of the nth substance listed. Particulars: 298.15 K, 101 kPa, Liquid, Flow calorimetry.

Regarding `COC(C)(C)C` [2-methoxy-2-methylpropane], in data set [1], the mass density (commonly the mass of a sample divided by its volume) is recorded as 735.99 ± 0.74 kg/m3.

On to `CC1CCCO1` (stereo not drawn) [2-methyltetrahydrofuran], for which, in data set [1], the mass density amounted to 848.1 ± 0.89 kg/m3.

Regarding `C=CCCCC` [hex-1-ene], in data set [1], the mass density came out at 668.73 ± 1.4 kg/m3.

Take `C=CCCCC` [hex-1-ene] + C1CCOC1: the excess molar enthalpy in data set [2] (x1 = 0.0501) turned out to be 0.0675 ± 0.0019 kJ/mol; in data set [2] (x1 = 0.097), 0.127 ± 0.0028 kJ/mol; in data set [2] (x1 = 0.1507), 0.186 ± 0.0037 kJ/mol; in data set [2] (x1 = 0.1994), 0.23 ± 0.0044 kJ/mol; in data set [2] (x1 = 0.2501), 0.272 ± 0.0051 kJ/mol; in data set [2] (x1 = 0.3003) it was 0.305 ± 0.0057 kJ/mol. Moreover, the excess molar enthalpy amounted to 0.33 ± 0.0061 kJ/mol in data set [2] (x1 = 0.3499); 0.349 ± 0.0064 kJ/mol in data set [2] (x1 = 0.3999); 0.359 ± 0.0066 kJ/mol in data set [2] (x1 = 0.45); 0.366 ± 0.0067 kJ/mol in data set [2] (x1 = 0.4977); 0.364 ± 0.0067 kJ/mol in data set [2] (x1 = 0.5494); 0.353 ± 0.0065 kJ/mol in data set [2] (x1 = 0.6006). Also, the excess molar enthalpy in data set [2] (x1 = 0.649) was found to be 0.338 ± 0.0062 kJ/mol; in data set [2] (x1 = 0.6905), 0.318 ± 0.0059 kJ/mol; in data set [2] (x1 = 0.7499) it was 0.282 ± 0.0053 kJ/mol; in data set [2] (x1 = 0.7999), 0.245 ± 0.0047 kJ/mol; in data set [2] (x1 = 0.8501) it was 0.197 ± 0.0039 kJ/mol; in data set [2] (x1 = 0.8995), 0.14 ± 0.003 kJ/mol. Also, the excess molar enthalpy in data set [2] (x1 = 0.95) came out at 0.0755 ± 0.002 kJ/mol.

As for `C1CCOC1` [tetrahydrofuran], the mass density in data set [1] is reported as 882.09 ± 0.8 kg/m3.
